# Article PMC12135066, “Design and Preclinical Evaluation of Novel uPAR-Targeting Radiopeptides Modified with an Albumin-Binding Entity” (Molecular Pharmaceutics, 2025)
# Legend:
# [1] = n-Octanol/PBS distribution coefficients (logD values); conditions: n-octanol/PBS pH 7.4, pH 7.4
# Experimental: The radiopeptides diluted in phosphate-buffered saline (PBS) pH 7.4 (25 μL, ∼0.5 MBq, 0.01 nmol) were added to a mixture of PBS pH 7.4 (1475 μL) and n-octanol (1500 μL). The vials were vortexed vigorously for 1 min, followed by centrifugation (560 rcf, 6 min) for phase separation. Aliquots were taken from each phase and measured in a γ-counter (1480 Wizard, PerkinElmer). The distribution coefficients were calculated as the logarithmic value of the ratio of counts per minute (cpm) measured in the n-octanol phase relative to the cpm measured in the PBS phase.
# Methods: The logD value of all radiopeptides was determined in a mixture of n-octanol and phosphate
# buffered saline (PBS) pH 7.4 using phase separation followed by liquid-liquid extraction.
# polystyrene radioimmunoassay (RIA) tubes were prepared for each radiopeptide with 1.5 mL n-octanol
# and 1.475 mL PBS pH 7.4. The RIA tubes were rigorously vortexed and subsequently let to stand so
# that the phase separation could take place. The radiopeptides (50 MBq/nmol) were diluted with PBS
# pH 7.4 to obtain an activity concentration of 10 MBq/0.5 mL. A volume of 25 μL of these solutions
# was added to each RIA tube (25 µL, ~0.5 MBq, 0.01 nmol) followed by vortexing for 1 min.
# separation was achieved by centrifugation at 560 rcf for 6 min. The activity in the n-octanol and PBS
# phase, respectively, was measured in a γ-counter (Wallac Wizard 1480, PerkinElmer).
# coefficients were calculated as the logarithm of the ratio of counts per minute (cpm) measured in the n-
# octanol phase relative to the cpm measured in the PBS pH 7.4 phase.
# as described above three independent times for each radiopeptide.
# [2] = Stability of the radiopeptides in human blood plasma; conditions: human
# Experimental: (§1) The radiopeptides (50 MBq/nmol) stabilized with L-ascorbic acid were diluted in mouse and human blood plasma and incubated at 37 °C. Aliquots were taken after 1, 4, and 24 h and analyzed using reversed-phase thin-layer chromatography (TLC) (Supporting Information).
# (§2) aProduct peak expressed as percentage of the sum of integrated peak areas of the entire chromatogram relative to
# (§3) the value obtained immediately after labeling (set as 100%), average ± standard deviation (SD) (n=3).
# (§4) Stability of the Radiopeptides in Mouse and Human Blood Plasma
# (§5) Purpose: The stability of the radiopeptides was assessed in mouse and human blood plasma as an
# indication for their in vivo stability.
# (§6) Methods: The radiopeptides (50 MBq/nmol) stabilized with L-ascorbic acid were diluted in mouse
# (§7) blood plasma (Lot: 32321, Rockland Immunochemicals Inc., U.S.A.) or in human blood plasma
# (§8) (Stiftung Blutspende SRK Aargau -Solothurn, Switzerland) at a concentration of 10 MBq/200 µL and
# (§9) incubated at 37 °C over a 24 h time period. Control samples were prepared by diluting the radiopeptides
# (§10) in saline at the same activity concentration. Aliquots of each dilution were taken after 1 h, 4 h, and 24 h
# (§11) (2 µL, ~100 kBq) and investigated employing thin layer chromatography (TLC) methods on reversed-
# (§12) phase TLC plates (MERCK Analytical Chromatography, TLC Silica gel 60 RP -18 F254s) as stationary
# (§13) phase and a 3/7 (v/v) mixture of acetonitrile /citrate buffer (0.1 M, pH 5.5) as mobile phase. A dilution
# (§14) of [177Lu]LuCl3/HCl 0.04 M (10 MBq/200 µL) was added on each TLC plate. The developed and dried
# (§15) TLC plates were exposed to a phosphor screen (Super resolution screen PSR10450013, PerkinElmer)
# (§16) for 1 min. The screen was read with a Cyclone Plus phosphor imager (PerkinElmer) and the peak
# (§17) quantification was performed using OptiQuant Software (version 5.0).
# [3] = Stability of the radiopeptides in mouse blood plasma; conditions: mouse
# Experimental: as §1, §2, §3, §4, §5
# indication for their in vivo stability.
# as §6, §7, §8, §9, §10, §11, §12, §13, §14, §15, §16, §17
# [4] = Radiolytic stability of the radiopeptides in saline with L-ascorbic acid; conditions: 50 MBq/nmol in saline, 150 MBq/300 µL, L-ascorbic acid (3 mg, 20 µL) and NaOAc (0.5 M, 30 µL), HPLC, product peak relative to t=0 (100%), average ± SD, n=3
# Experimental: The radiolytic stability of the radiopeptides (50 MBq/nmol) in saline (150 MBq/300 μL) was assessed in the absence and presence of L-ascorbic acid (3 mg added in a volume of 20 μL). After an incubation period of 1, 4, and 24 h, aliquots of the solutions were analyzed using HPLC. The integrated peak area representing the intact radiopeptide was expressed as the percentage of the sum of all peaks of the chromatogram. The final amount of intact radiopeptide was expressed as the percentage of the product peak obtained at t = 0, which was set as 100% (Supporting Information).
# The radiolytic stability of [177Lu]Lu-DOTA-AE105 and the new 177Lu-labeled uPAR-targeting
# radiopeptides (50 MBq/nmol) was assessed in vitro in the formulated solution . The radiopeptide s were
# diluted in saline to obtain an activity concentration of 150 MBq in 300 µL in the presence of L-ascorbic
# acid (3 mg, 20 µL) and NaOAc (0.5 M, 30 µL) to compensate for the acidic pH. Aliquots of the dilutions
# were analyzed using HPLC after incubation periods of 1 h, 4 h and 24 h . The integrated peak area
# measured for the intact radioligand peak was expressed as the percentage of the sum of the integrated
# peak areas of each peak present in the chromatogram. The final amount of intact radiopeptide at t = 1 h,
# 4 h and 24 h was expressed by correcting the obtained percentage of the product peak to this peak
# obtained at t = 0, which was set as 100%.
# human uPAR = biological target: T1, human uPAR (Homo sapiens, UniProt Q03405); assay: uPAR-binding affinity (KD values), saturation experiments with HEK-uPAR cells; conditions: saturation binding on HEK-uPAR cells, on ice (4 °C) 1 h, 1–1600 nM radiopeptide, ± AE105 40 µM; γ-counter; nonlinear regression; average ± SD, n=3
# T1 construct: host or cells: HEK cells (HEK-uPAR)
# T1 sequence (Q03405 23-335): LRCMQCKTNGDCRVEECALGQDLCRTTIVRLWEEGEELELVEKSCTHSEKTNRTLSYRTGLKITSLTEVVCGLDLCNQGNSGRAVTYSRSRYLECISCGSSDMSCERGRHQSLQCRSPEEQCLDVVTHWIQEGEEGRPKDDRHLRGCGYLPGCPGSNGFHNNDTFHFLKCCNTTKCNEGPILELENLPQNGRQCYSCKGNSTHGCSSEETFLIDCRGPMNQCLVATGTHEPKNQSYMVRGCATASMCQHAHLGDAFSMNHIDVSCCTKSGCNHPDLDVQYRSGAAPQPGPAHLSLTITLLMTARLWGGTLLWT
# In short: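 HEK-uPAR cells incubated 1 h at 4 °C (on ice) with radiopeptide at 1–1600 nM final, with or without 40 μM AE105 as blocker. Cell-bound activity counted in a γ-counter after NaOH lysis; KD from nonlinear regression of specific binding (total minus unspecific), mean ± SD of n = 3.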
# [5] = Biodistribution studies in HEK-uPAR xenograft-bearing nude mice; conditions: female, mouse, 0.5 nmol, total radioactivity, 5 MBq, 0.5 nmol, decay-corrected, average ± SD, n=3 animals; for tissue uptake at 24 h: 24 h p.i.; for tissue uptake at 4 h: 4 h p.i.
# Experimental: All applicable international, national, and/or institutional guidelines for the care and use of laboratory animals were followed, and the herein reported experiments were carried out according to the guidelines of the Swiss Regulations for Animal Welfare. The preclinical studies were ethically approved by the Cantonal Committee of Animal Experimentation and permitted by the responsible cantonal authorities (License No. 75721). Five-week-old female CD1/nude (Crl:CD1-Foxn ^ nu ) and female immunocompetent FVB (FVB/NCrl) mice were obtained from Charles River Laboratories (Sulzfeld, Germany). All mice were acclimatized for at least 7 days, receiving standard rodent chow ad libitum before being included in the reported studies. The CD1/nude mice were subcutaneously inoculated with HEK-uPAR cells (7 × 10^6 cells in 100 μL PBS) on the right shoulder. […] Typically, it took 3–11 weeks to reach xenograft volumes of 40–600 mm^3 at the time of testing the tissue distribution of the radiopeptides. The immunocompetent FVB mice were used for testing the in vivo stability of the radiopeptides.
# The mice were injected with the radiopeptides (5 MBq, 0.5 nmol, 100 μL) in saline containing 0.05% BSA and sacrificed at 4 and 24 h after injection of the radiopeptides. Selected tissues and organs were collected, weighed, and measured with the γ-counter (1480 Wizard, PerkinElmer). […] A p-value of <0.05 was considered a statistically significant difference (GraphPad Prism software, version 8.3.1).
# Decay-corrected data is shown as average ± SD of n = 3 animals of % injected activity per gram (IA/g) tissue.
# [6] = system: mouse serum albumin (MSA); assay: Albumin-binding properties in mouse blood plasma (ultrafiltration assay)
# Experimental: (§18) The relative albumin-binding affinities of the radiopeptides in mouse and human blood plasma were determined using an ultrafiltration assay with Amicon centrifugal filters (cutoff of 10 kDa; Merck Millipore), as previously reported (Supporting Information). A fixed amount of the respective radiopeptide (15 μL, ∼300 kBq, 0.006 nmol) was added to a defined volume (150 μL) of mouse and human blood plasma dilutions to obtain [mouse serum albumin (MSA)]-to-[radiopeptide] and [human serum albumin (HSA)]-to-[radiopeptide] molar concentration ratios of 0.01–12,500 and 0.01–20,000, respectively. The data were analyzed using a semilogarithmic Hill plot with the maximum binding set as 100% (GraphPad Prism software, version 8.3.1).
# (§19) Determination of the Albumin-Binding Properties
# (§20) Purpose: The radiopeptides were investigated with regard to their albumin-binding capabilities in vitro
# (§21) as a measure to predict blood retention in vivo.
# (§22) Methods: The relative albumin-binding affinity of the radiopeptides in mouse blood plasma (Rockland
# (§23) Immunochemicals, Inc., U.S.A.) and human blood plasma (Stiftung Blutspende SRK Aargau-
# (§24) Solothurn, Switzerland) were determined using an ultrafiltration method. The amount of mouse serum
# (§25) albumin (MSA) and human serum albumin (HSA) in mouse and human blood plasma was defined as
# (§26) 550 μM and 800 μM, respectively, based on measurements using a dry chemistry analyzer (DRI-CHEM
# (§27) 4000i, FUJIFILM, Japan). A fixed amount of radiopeptide (50 MBq/nmol, ~300 kBq, 15 μL, 0.006
# (§28) nmol) was added to a defined volume (150 μL) of mouse and human blood plasma and various dilutions
# (§29) thereof in PBS pH 7.4, resulting in defined [MSA]-to-[radiopeptide] or [HSA]-to-[radiopeptide] molar
# (§30) concentration ratios ranging from 0.01 ‒12500 and 0.01‒20000, respectively, followed by incubation of
# (§31) the samples at 37 °C for 30 min. Ice-cold PBS (150 µL, pH 7.4) was added before loading the blood
# (§32) plasma samples on Amicon centrifugal filters (cut -off of 10 kDa; Merck Millipore) followed by
# (§33) centrifugation (14000 rcf, 30 min, 4 °C) to allow the separation of the plasma protein -bound from the
# (§34) plasma-unbound (free) fractions of each sample. The inserts of the filter devices were inverted and centrifuged at 200 rcf for 3 min to recover the protein -bound radiopeptide. The activity in the filtrate
# (§35) and filter unit was measured in a γ-counter (1480 Wizard, PerkinElmer) and the counts were combined
# (§36) assuming that the fraction retained in the filter membrane was not bound to proteins. The protein -bound
# (§37) fraction was expressed as percentage of the whole activity (i.e. plasma protein -bound activity, activity
# (§38) measured in the filtrate and activity measured in the filter (set as 100%) ). The data were analyzed using
# (§39) a semi-logarithmic plot assuming a maximum binding of 100%. The Hill equation was fitted to the data
# (§40) points and the half -maximum binding ( B50) based on the average curve obtained from three independent
# (§41) experiments (GraphPad Prism software, version 8.3 .1). The relative albumin-binding affinit ies of the
# (§42) reference compound, whose relative binding affinity was set as 1.0. The results were presented as the
# (§43) B50 value obtained from the average curve from 3 independent experiments.
# [7] = system: human serum albumin (HSA); assay: Albumin-binding properties in human blood plasma (ultrafiltration assay)
# Experimental: as §18, §19, §20, §21, §22, §23, §24, §25, §26, §27, §28, §29, §30, §31, §32, §33, §34, §35, §36, §37, §38, §39, §40, §41, §42, §43
# [8] = CD1/nude, blood, 5 MBq (0.5 nmol)
# [9] = CD1/nude, bone, 5 MBq (0.5 nmol)
# [10] = CD1/nude, brain, 5 MBq (0.5 nmol)
# [11] = CD1/nude, heart, 5 MBq (0.5 nmol)
# [12] = CD1/nude, intestines, 5 MBq (0.5 nmol)
# [13] = CD1/nude, kidneys, 5 MBq (0.5 nmol)
# [14] = CD1/nude, liver, 5 MBq (0.5 nmol)
# [15] = CD1/nude, lung, 5 MBq (0.5 nmol)
# [16] = CD1/nude, muscle, 5 MBq (0.5 nmol)
# [17] = CD1/nude, pancreas, 5 MBq (0.5 nmol)
# [18] = CD1/nude, salivary glands, 5 MBq (0.5 nmol)
# [19] = CD1/nude, spleen, 5 MBq (0.5 nmol)
# [20] = CD1/nude, stomach, 5 MBq (0.5 nmol)
smiles,measurement,setting,value
"CC(C)C[C@H](NC(=O)[C@H](Cc1ccc(O)cc1)NC(=O)[C@@H](CCCNC(=N)N)NC(=O)[C@@H](CO)NC(=O)[C@H](Cc1ccccc1)NC(=O)[C@H](CC1CCCCC1)NC(=O)[C@H](CC(=O)O)NC(=O)CCOCCOCCOCCOCCNC(=O)[C@H](CCCCNC(=O)CCCc1ccc(I)cc1)NC(=O)CN1CCN(CC(=O)O)CCN(CC(=O)O)CCN(CC(=O)O)CC1)C(=O)N[C@@H](Cc1c[nH]c2ccccc12)C(=O)N[C@@H](CO)C(N)=O [[^177Lu]Lu-uPAR-05, metal not drawn]",logD,[1],0.24 ± 0.09
same,"remaining at 1 h, 10 MBq/200 µL",[2]; blood plasma,99 ± 1%
same,"remaining at 24 h, 10 MBq/200 µL",[2]; blood plasma,99 ± 1%
same,"remaining at 4 h, 10 MBq/200 µL",[2]; human blood plasma,99 ± 1%
same,"remaining at 1 h, 10 MBq/200 µL",[3]; blood plasma,99 ± 1%
same,"remaining at 24 h, 10 MBq/200 µL",[3]; blood plasma,98 ± 2%
same,"remaining at 4 h, 10 MBq/200 µL",[3]; mouse blood plasma,98 ± 2%
same,"radiolytic stability, % intact radiopeptide",[4]; 1 h,99 ± 2%
same,"radiolytic stability, % intact radiopeptide",[4]; 4 h,97 ± 1%
same,"radiolytic stability after 24 h, intact radiopeptide [%]",[4]; 24 h,93 ± 1%
same,Kd,human uPAR,10 ± 5 nM
same,tissue uptake at 24 h,"[5]; CD1/nude (Crl:CD1-Foxn nu), HEK-uPAR xenograft, HEK-uPAR xgft",3.1 ± 0.7 %ID/g
same,tissue uptake at 4 h,"[5]; CD1/nude, HEK-uPAR xenograft, 5 MBq (0.5 nmol), HEK-uPAR xgft",5.1 ± 1 %ID/g
same,tissue uptake at 4 h,[5]; [8],12 ± 1 %ID/g
same,tissue uptake at 24 h,[5]; [8],4.6 ± 0.3 %ID/g
same,tissue uptake at 4 h,[5]; [9],1.1 ± 0.1 %ID/g
same,tissue uptake at 24 h,[5]; [9],0.67 ± 0.06 %ID/g
same,tissue uptake at 4 h,[5]; [10],0.27 ± 0.01 %ID/g
same,tissue uptake at 24 h,[5]; [10],0.11 ± 0.02 %ID/g
same,tissue uptake at 4 h,[5]; [11],4.1 ± 0.2 %ID/g
same,tissue uptake at 24 h,[5]; [11],1.6 ± 0.1 %ID/g
same,tissue uptake at 4 h,[5]; [12],1.6 ± 0.1 %ID/g
same,tissue uptake at 24 h,[5]; [12],0.73 ± 0.07 %ID/g
same,tissue uptake at 4 h,[5]; [13],3.6 ± 0.2 %ID/g
same,tissue uptake at 24 h,[5]; [13],1.6 ± 0.1 %ID/g
same,tissue uptake at 4 h,[5]; [14],5.2 ± 0.6 %ID/g
same,tissue uptake at 24 h,[5]; [14],1.1 ± 0.1 %ID/g
same,tissue uptake at 4 h,[5]; [15],7 ± 0.5 %ID/g
same,tissue uptake at 24 h,[5]; [15],2.6 ± 0.4 %ID/g
same,tissue uptake at 4 h,[5]; [16],1.1 ± 0.1 %ID/g
same,tissue uptake at 24 h,[5]; [16],0.41 ± 0.04 %ID/g
same,tissue uptake at 4 h,[5]; [17],1.4 ± 0.2 %ID/g
same,tissue uptake at 24 h,[5]; [17],0.62 ± 0.07 %ID/g
same,tissue uptake at 4 h,[5]; [18],2.5 ± 0.3 %ID/g
same,tissue uptake at 24 h,[5]; [18],1.1 ± 0.1 %ID/g
same,tissue uptake at 4 h,[5]; [19],1.5 ± 0.1 %ID/g
same,tissue uptake at 24 h,[5]; [19],0.82 ± 0.1 %ID/g
same,tissue uptake at 4 h,[5]; [20],1.3 ± 0.1 %ID/g
same,tissue uptake at 24 h,[5]; [20],0.64 ± 0.01 %ID/g
same,fold lower albumin-binding affinity than [177Lu]Lu-uPAR-01,"[6]; mouse blood plasma, ultrafiltration",1.6 fold
same,"Relative albumin-binding affinity, mouse blood plasma","[6]; ultrafiltration (Amicon, 10 kDa), mouse blood plasma dilutions in PBS pH 7.4, [MSA]-to-[radiopeptide] 0.01–12500, 0.006 nmol, 37 °C 30 min, γ-counter, inverse ratio of B50, [177Lu]Lu-uPAR-01 set as 1.00, average curve of 3 experiments",0.61
same,fold lower albumin-binding affinity than [177Lu]Lu-uPAR-01,"[7]; human blood plasma, ultrafiltration",2.4 fold
same,"Relative albumin-binding affinity, human blood plasma","[7]; ultrafiltration (Amicon, 10 kDa), human blood plasma dilutions in PBS pH 7.4, [HSA]-to-[radiopeptide] 0.01–20000, 0.006 nmol, 37 °C 30 min, γ-counter, inverse ratio of B50, [177Lu]Lu-uPAR-01 set as 1.00, average curve of 3 experiments",0.43
